Laboratory results: patent US20210169854A1, “3'-[(2Z)-[1-(3,4-dimethylphenyl)-1,5-dihydro-3-methyl-5-oxo-4H-pyrazol-4-ylidene]hydrazino]-2'-hydroxy-[1,1'-biphenyl]-3-carboxylic acid and its salts formulation” (NOVARTIS AG, priority 2019, published 2021)
Like-named read-outs stand apart in the source and are kept apart here.

Key:
[1] = cited from earlier work
[2] = cited from earlier work; remark: listed apart in the source
[3] = cited from earlier work; remark: listed apart in the source
[4] = standard high-fat breakfast; cited from earlier work
[5] = Solubility and permeability of eltrombopag (general statements, data not shown); format: physicochemical; conditions: even in the form of bis-monoethanolamine salt
[6] = single 25-mg dose for oral suspension 2 hours after the high-calcium meal
[7] = single 25-mg dose for oral suspension 2 hours before the high-calcium meal
[8] = single 25-mg dose for oral suspension with a high-calcium, moderate-fat, moderate-calorie meal

| SMILES | AUC elevation compared with the fasted state ([1]; after a high fat meal) | Cmax elevation compared with the fasted state ([1]; after a high fat meal) | AUC elevated compared with the fasted state ([1]; after a low fat meal) | Cmax elevated compared with the fasted state ([1]; after a low fat meal) | reduction of plasma eltrombopag AUCO-∞ [2, 6] | reduction of plasma eltrombopag Cmax [2, 6] | reduction of plasma eltrombopag AUCO-∞ [2, 7] | reduction of plasma eltrombopag Cmax [2, 7] | reduction of plasma eltrombopag AUCO-∞ [2, 8] | reduction of plasma eltrombopag Cmax [2, 8] | solubility (BCS context) [3] | decrease of plasma eltrombopag AUCO-∞ [4] | decrease of plasma eltrombopag Cmax [4] | solubility in water and in a number of liquid/semisolid surfactants [5] |
| --- | --- | --- | --- | --- | --- | --- | --- | --- | --- | --- | --- | --- | --- | --- |
| C[C@]12CC[C@H](O)CC1=CC[C@@H]1[C@@H]2CC[C@]2(C)C(c3cccnc3)=CC[C@@H]12 [abiraterone] | 10 fold | 17 fold | 5 fold | 7 fold | – | – | – | – | – | – | – | – | – | – |
| CC1=NN(c2ccc(C)c(C)c2)C(=O)/C1=N\Nc1cccc(-c2cccc(C(=O)O)c2)c1O [eltrombopag, 3′-[(2Z)-[1-(3,4-dimethylphenyl)-1,5-dihydro-3-methyl-5-oxo-4H-pyrazol-4-ylidene]hydrazino]-2′-hydroxy-[1,1′-biphenyl]-3-carboxylic acid] | – | – | – | – | 47% | 48% | 20% | 14% | 75% | 79% | low soluble | approximately 59% | 65% | low solubility |
